Test results reported in PMC7168327, “Designed Antimicrobial Peptides for Topical Treatment of Antibiotic Resistant Acne Vulgaris” (Antibiotics, 2020).
In brackets after ≈: the same amount, converted by molar mass. Several values for one entry are separate records, joined by “and”; a condition that tells them apart may be missing. Equal values may be shown once. Read-outs that look alike come from different tables or passages of the source. Bridge positions count the residues as written; N and C are the ends. Square brackets hold non-standard residues; d marks the D form. Peptide text beside a SMILES is read from it. Orn = NCCC[C@H](N)C(=O)O

Key:
C. acnes HL043PA2 [1] = conditions: cited from earlier work
Excerpt: (§1) Table 1 Growth Inhibition of dAMPs (MICs, µg/mL) against C. acnes Isolates. | column: Antibiotic Sensitivity / Tetra ^#; Antibiotic Sensitivity / Ery ^#; Antibiotic Sensitivity / Clind ^#

C. acnes ATCC11827 [2] = conditions: cited from earlier work
Excerpt: as §1

C. acnes HL013PA1 [3] = conditions: cited from earlier work
Excerpt: as §1

C. acnes HL043PA1 [4] = conditions: cited from earlier work
Excerpt: as §1

C. acnes HL007PA1 [5] = conditions: cited from earlier work
Excerpt: as §1

C. acnes HL056PA1 [6] = conditions: cited from earlier work
Excerpt: as §1

C. acnes ATCC6919 [7] = conditions: cited from earlier work
Excerpt: as §1

C. acnes HL082PA2 [8] = conditions: cited from earlier work
Excerpt: as §1

C. acnes HL053PA1 [9] = conditions: cited from earlier work
Excerpt: as §1

C. acnes HL045PA1 [10] = conditions: cited from earlier work
Excerpt: as §1

C. acnes HL072PA1 [11] = conditions: cited from earlier work
Excerpt: as §1

C. acnes HL038PA1 [12] = conditions: cited from earlier work
Excerpt: as §1

[13] = test system: C. acnes HL043PA2 compared to human keratinocytes; assay type: cell-based
Experimental: In evaluating the clinical utility of each of the candidate dAMPs for C. acnes treatment, the Therapeutic Index was determined. The Therapeutic Index is defined as the ratio of concentration at which the dAMP is active against the prokaryotic C. acnes pathogen without inducing cytotoxic damage to the surrounding mammalian cells. The EC10 and EC50 doses, defined as the concentrations required to kill 10% and 50% respectively of human keratinocytes following 8 h incubation with each of the Riptide dAMPs, are tabulated and graphed in Table 2 and Figure 3, respectively. The larger the Therapeutic Index, the greater the specificity of the dAMP for destroying C. acnes cells.
(§2) Single colonies were inoculated in Reinforced Clostridium Medium (RCM) broth supplemented with sodium thioglycolate and incubated at 37 °C, with shaking at 200 rpm, for 2 or 3 days to reach logarithmic growth (OD600nm = 1.0). Each C. acnes (1 × 10^6 CFU per mL) was incubated with dAMP or clindamycin at two-fold serial dilutions (0.5–32 μg per mL) in RCM on a 96-well microplate for 48 h. Three replicas were included for each test article concentration. Bacterial growth was measured by optical density at 600 nm to determine the MIC for each dAMP applied.
(§3) Noninvasive and real-time monitoring of mammalian cytotoxicity to assess the potential skin toxicity of the dAMPs was evaluated using bioluminescent human immortalized keratinocytes (HaCaT, AddexBio, San Diego, CA, USA). The bioluminescent variant of HaCaT was constructed by transfection with a luciferase gene (RediFect Red-Fluc-Puromycin, Cat# CL596002). Keratinocytes (1 × 10^4 cells, 100 μL) were plated in 96-well black-walled plates. The candidate dAMPs were 2-fold serially diluted from 1024 µg/mL in growth medium supplemented with 150 µg/mL D-luciferin. Each concentration was performed in triplicate, with the final volume being 200 μL. Imaging was performed at select times (0, 15, and 30 min and 1, 3, 5, and 8 h) after the addition of the dAMP, and compared to concurrently run vehicle-control, using an IVIS Lumina imaging system (Caliper Life Sciences, Inc., Hopkinton, MA, USA). For imaging, the 96-well plate was positioned on the stage (12.5-cm field of view), with an open emission filter, binning of 4, and f-stop 1 and a 1-min exposure time. Data analysis was performed using the Living Image software program (version 4.3, Caliper Life Sciences, Inc.). The dAMP concentrations required to kill 10% and 50% of keratinocytes were determined using GraphPad Prism 7 (GraphPad Software, San Diego, CA, USA).

[14] = test system: ten C. acnes clinical isolates and two C. acnes ATCC reference strains; assay type: cell-based, Cutibacterium acnes; conditions: for in vitro anti-bacterial activity against the C. acnes bacterial strains (in words): 0.5–32 μg/mL concentration range evaluated
Experimental: (§4) The ten antibiotic resistant C. acnes clinical isolates were acquired from BEI resources with the two reference strains obtained from American Type Culture Collection (ATCC, Manassas, VA, USA). C. acnes is a relatively slow-growing, typically aerotolerant anaerobic so all in vitro C. acnes experiments were performed under anaerobic conditions.
as §2

C. acnes HL043PA2 [15] = assay type: cell-based, Cutibacterium acnes
Experimental: as §4, §2

C. acnes ATCC11827 [16] = assay type: cell-based, Cutibacterium acnes
Experimental: as §4, §2

C. acnes HL013PA1 [17] = assay type: cell-based, Cutibacterium acnes
Experimental: as §4, §2

C. acnes HL043PA1 [18] = assay type: cell-based, Cutibacterium acnes
Experimental: as §4, §2

C. acnes HL007PA1 [19] = assay type: cell-based, Cutibacterium acnes
Experimental: as §4, §2

C. acnes HL056PA1 [20] = assay type: cell-based, Cutibacterium acnes
Experimental: as §4, §2

C. acnes ATCC6919 [21] = assay type: cell-based, Cutibacterium acnes
Experimental: as §4, §2

C. acnes HL082PA2 [22] = assay type: cell-based, Cutibacterium acnes
Experimental: as §4, §2

C. acnes HL053PA1 [23] = assay type: cell-based, Cutibacterium acnes
Experimental: as §4, §2

C. acnes HL045PA1 [24] = assay type: cell-based, Cutibacterium acnes
Experimental: as §4, §2

C. acnes HL072PA1 [25] = assay type: cell-based, Cutibacterium acnes
Experimental: as §4, §2

C. acnes HL038PA1 [26] = assay type: cell-based, Cutibacterium acnes
Experimental: as §4, §2

[27] = test system: bioluminescent human immortalized keratinocytes (HaCaT); assay: Mammalian cytotoxicity, bioluminescent human keratinocytes; assay type: cell-based
Experimental: as §3

CCC[C@@H]1C[C@@H](C(=O)N[C@@H]([C@H]2O[C@H](SC)[C@H](O)[C@@H](O)[C@H]2O)[C@H](C)Cl)N(C)C1 [Clind, clindamycin]
Antibiotic Sensitivity, Clind (C. acnes HL043PA2 [1]): R (Antibiotic resistance to clindamycin defined by MIC ≥ 32 μg/mL) | Antibiotic Sensitivity, Clind (C. acnes ATCC11827 [2]): S (S, sensitive) | Antibiotic Sensitivity, Clind (C. acnes HL013PA1 [3]): R (Antibiotic resistance to clindamycin defined by MIC ≥ 32 μg/mL) | Antibiotic Sensitivity, Clind (C. acnes HL043PA1 [4]): R (Antibiotic resistance to clindamycin defined by MIC ≥ 32 μg/mL) | Antibiotic Sensitivity, Clind (C. acnes HL007PA1 [5]): R (Antibiotic resistance to clindamycin defined by MIC ≥ 32 μg/mL) | Antibiotic Sensitivity, Clind (C. acnes HL056PA1 [6]): R (Antibiotic resistance to clindamycin defined by MIC ≥ 32 μg/mL) | Antibiotic Sensitivity, Clind (C. acnes ATCC6919 [7]): S (S, sensitive) | Antibiotic Sensitivity, Clind (C. acnes HL082PA2 [8]): S (S, sensitive) | Antibiotic Sensitivity, Clind (C. acnes HL053PA1 [9]): R (Antibiotic resistance to clindamycin defined by MIC ≥ 32 μg/mL) | Antibiotic Sensitivity, Clind (C. acnes HL045PA1 [10]): R (Antibiotic resistance to clindamycin defined by MIC ≥ 32 μg/mL) | Antibiotic Sensitivity, Clind (C. acnes HL072PA1 [11]): R (Antibiotic resistance to clindamycin defined by MIC ≥ 32 μg/mL) | Antibiotic Sensitivity, Clind (C. acnes HL038PA1 [12]): R (Antibiotic resistance to clindamycin defined by MIC ≥ 32 μg/mL)

CC[C@H](C)[C@@H]1NC(=O)CNC(=O)[C@H](CCCCN)NC(=O)[C@H](Cc2ccc(O)cc2)NC(=O)[C@@H]2CSSC[C@H](NC1=O)C(=O)N[C@@H](Cc1ccccc1)C(=O)N[C@@H](CCCCN)C(=O)N[C@@H](CCCCN)C(=O)N[C@H](C(=O)N[C@@H](CCCCN)C(N)=O)CSSC[C@H](NC(=O)[C@H](Cc1ccccc1)NC(=O)[C@@H](N)CCCNC(=N)N)C(=O)N[C@@H](Cc1c[nH]c3ccccc13)C(=O)N[C@@H](CCCCN)C(=O)N[C@@H](C(C)C)C(=O)N2 [RP557] (H-RFCWKVCYKGICFKKCK-NH2; disulfide 3-16, 7-12)
Therapeutic Index (EC10 / MIC) ([13]; keratinocyte EC10 (8 h) versus MIC against HL043PA2 C. acnes): 30.8 | Therapeutic Index (EC50 / MIC) ([13]; keratinocyte EC50 (8 h) versus MIC against HL043PA2 C. acnes): 35 and 35.1 | in vitro anti-bacterial activity against the C. acnes bacterial strains (in words) [14]: most active | MIC values against all C. acnes isolates ([14]; span over ten antibiotic resistant isolates and two ATCC reference strains): 2 to 8 µg/mL | MIC (C. acnes HL043PA2 [15]; C. acnes HL043PA2 (multi-drug resistant), RCM broth, anaerobic, 1 × 10^6 CFU per mL, two-fold dilutions 0.5–32 μg/mL, 48 h, OD 600 nm, mean of three replicates): 8 µg/mL (≈ 3.75 µM) | MIC (C. acnes ATCC11827 [16]; C. acnes ATCC11827, RCM broth, anaerobic, 1 × 10^6 CFU per mL, two-fold dilutions 0.5–32 μg/mL, 48 h, OD 600 nm, mean of three replicates): 8 µg/mL (≈ 3.75 µM) | MIC (C. acnes HL013PA1 [17]; C. acnes HL013PA1, RCM broth, anaerobic, 1 × 10^6 CFU per mL, two-fold dilutions 0.5–32 μg/mL, 48 h, OD 600 nm, mean of three replicates): 2 µg/mL (≈ 0.936 µM) | MIC (C. acnes HL043PA1 [18]; C. acnes HL043PA1, RCM broth, anaerobic, 1 × 10^6 CFU per mL, two-fold dilutions 0.5–32 μg/mL, 48 h, OD 600 nm, mean of three replicates): 8 µg/mL (≈ 3.75 µM) | MIC (C. acnes HL007PA1 [19]; C. acnes HL007PA1, RCM broth, anaerobic, 1 × 10^6 CFU per mL, two-fold dilutions 0.5–32 μg/mL, 48 h, OD 600 nm, mean of three replicates): 8 µg/mL (≈ 3.75 µM) | MIC (C. acnes HL056PA1 [20]; C. acnes HL056PA1, RCM broth, anaerobic, 1 × 10^6 CFU per mL, two-fold dilutions 0.5–32 μg/mL, 48 h, OD 600 nm, mean of three replicates): 4 µg/mL (≈ 1.87 µM) | MIC (C. acnes ATCC6919 [21]; C. acnes ATCC6919, RCM broth, anaerobic, 1 × 10^6 CFU per mL, two-fold dilutions 0.5–32 μg/mL, 48 h, OD 600 nm, mean of three replicates): 8 µg/mL (≈ 3.75 µM) | MIC (C. acnes HL082PA2 [22]; C. acnes HL082PA2, RCM broth, anaerobic, 1 × 10^6 CFU per mL, two-fold dilutions 0.5–32 μg/mL, 48 h, OD 600 nm, mean of three replicates): 2 µg/mL (≈ 0.936 µM) | MIC (C. acnes HL053PA1 [23]; C. acnes HL053PA1, RCM broth, anaerobic, 1 × 10^6 CFU per mL, two-fold dilutions 0.5–32 μg/mL, 48 h, OD 600 nm, mean of three replicates): 4 µg/mL (≈ 1.87 µM) | MIC (C. acnes HL045PA1 [24]; C. acnes HL045PA1, RCM broth, anaerobic, 1 × 10^6 CFU per mL, two-fold dilutions 0.5–32 μg/mL, 48 h, OD 600 nm, mean of three replicates): 4 µg/mL (≈ 1.87 µM) | MIC (C. acnes HL072PA1 [25]; C. acnes HL072PA1, RCM broth, anaerobic, 1 × 10^6 CFU per mL, two-fold dilutions 0.5–32 μg/mL, 48 h, OD 600 nm, mean of three replicates): 8 µg/mL (≈ 3.75 µM) | MIC (C. acnes HL038PA1 [26]; C. acnes HL038PA1, RCM broth, anaerobic, 1 × 10^6 CFU per mL, two-fold dilutions 0.5–32 μg/mL, 48 h, OD 600 nm, mean of three replicates): 8 µg/mL (≈ 3.75 µM) | viability of human keratinocytes ([27]; 8 h incubation at 256 μg/mL, bioluminescent HaCaT): greater than 80% | EC10, concentration required to kill 10% of human keratinocytes ([27]; bioluminescent HaCaT, 1 × 10^4 cells/well, 8 h incubation, 2-fold dilutions from 1024 µg/mL, triplicate, IVIS imaging, GraphPad Prism 7): 246 µg/mL

CC[C@H](C)[C@H](NC(=O)[C@H](CCCN)NC(=O)[C@H](CC(C)C)NC(=O)[C@H](CCCNC(=N)N)NC(=O)[C@@H](N)Cc1ccccc1)C(=O)N[C@@H](CCCCN)C(=O)N[C@@H](C)C(=O)N[C@@H](CCCN)C(=O)N[C@@H](CC(C)C)C(=O)N[C@@H](CCCCN)C(=O)N[C@H](C(=O)N[C@@H](CCCN)C(=O)N[C@H](C(=O)N[C@@H](CCCNC(=N)N)C(=O)N[C@@H](Cc1ccccc1)C(=O)N[C@@H](CCCCN)C(=O)N[C@@H](CC(C)C)C(N)=O)[C@@H](C)CC)C(C)C [RP568] (H-FRL[Orn]IKA[Orn]LKV[Orn]IRFKL-NH2)
Therapeutic Index (EC50 / MIC) ([13]; 8 h): 7.16 | in vitro anti-bacterial activity against the C. acnes bacterial strains (in words) [14]: negligible activity | MIC (C. acnes HL043PA2 [15]; HL043PA2, 48 h): >32 µg/mL | MIC (C. acnes ATCC11827 [16]; ATCC11827, 48 h): >32 µg/mL | MIC (C. acnes HL013PA1 [17]; HL013PA1, 48 h): >32 µg/mL | MIC (C. acnes HL043PA1 [18]; HL043PA1, 48 h): >32 µg/mL | MIC (C. acnes HL007PA1 [19]; HL007PA1, 48 h): >32 µg/mL | MIC (C. acnes HL056PA1 [20]; HL056PA1, 48 h): >32 µg/mL | MIC (C. acnes ATCC6919 [21]; ATCC6919, 48 h): >32 µg/mL | MIC (C. acnes HL082PA2 [22]; HL082PA2, 48 h): >32 µg/mL | MIC (C. acnes HL053PA1 [23]; HL053PA1, 48 h): >32 µg/mL | MIC (C. acnes HL045PA1 [24]; HL045PA1, 48 h): >32 µg/mL | MIC (C. acnes HL072PA1 [25]; HL072PA1, 48 h): >32 µg/mL | MIC (C. acnes HL038PA1 [26]; HL038PA1, 48 h): >32 µg/mL | EC50, concentration required to kill 50% of human keratinocytes ([27]; 8 h): 229 µg/mL
